This experiment has as its target T1, Neutrophil elastase enzyme (HNE) (Homo sapiens, UniProt P08246).
T1 sequence (P08246 30-267): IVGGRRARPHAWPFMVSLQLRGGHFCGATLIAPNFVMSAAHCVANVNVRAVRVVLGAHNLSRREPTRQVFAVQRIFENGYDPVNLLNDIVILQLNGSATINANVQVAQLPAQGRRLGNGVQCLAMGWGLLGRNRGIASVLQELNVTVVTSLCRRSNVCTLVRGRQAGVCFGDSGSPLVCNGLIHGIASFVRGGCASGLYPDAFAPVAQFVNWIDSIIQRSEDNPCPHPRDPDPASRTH
As to the kind of experiment: Neutrophil elastase inhibitor activity. The settings on record: read-out: Degree of HNE inhibition (Mean). The class given is biochemical.
The term inhibition denotes the share of the control response that was lost under treatment. Consider `NNC(=O)CC1C(=O)c2ccccc2C1=O` [IDH1, 2-(1,3-Dioxo-2,3-dihydro-1H-inden-2-yl)acetohydrazide], for which the inhibition at 0.1 µM worked out at 18.6%, the inhibition at 1 µM is 21.6%, the inhibition at 10 µM amounted to 28.7% and the inhibition at 50 µM was determined as 30.1%. Further, the inhibition at 100 µM stood at 36.5%.
On the same counts, the results for `CC(C)(C)C(=O)Oc1ccc(S(=O)(=O)Nc2ccccc2C(=O)NCC(=O)O)cc1` [Sivelestat, reference compound] are 96.2%, 98.5%, 98.6%, 98.5% and 99.8%.
On the same counts, the results for `O=C(CC1C(=O)c2ccccc2C1=O)NNC(=S)N=Cc1cccc([N+](=O)[O-])c1` [IDC7, 2-(2-(1,3-Dioxo-2,3-dihydro-1H-inden-2-yl)acetyl)-N-(3-nitrobenzylidene)hydrazine-1-carbothioamide] are 12%, 16.7%, 24.6%, 25.8% and 26.7%.
In the case of `NC(=S)NNC(=O)CC1C(=O)c2ccccc2C1=O` [IDC2, 2-(2-(1,3-Dioxo-2,3-dihydro-1H-inden-2-yl)acetyl)hydrazine-1-carbothioamide], the inhibition at 0.1 µM was 16.3%, the inhibition at 1 µM is 18.9%, the inhibition at 10 µM came out at 21.5% and the inhibition at 50 µM is 24.8%. Also, the inhibition at 100 µM came out at 28.8%.
